# Experimental data: US20250263390A1, “NOVEL SUBSTITUTED 6,7-DIHYDRO-5H-BENZO[7]ANNULENE COMPOUNDS AND THEIR DERIVATIVES, PROCESSES FOR THEIR PREPARATION AND THERAPEUTIC USES THEREOF” (SANOFI, priority 2022, published 2025)
# Target: T1, ERα (Homo sapiens, UniProt P03372)
# T1 construct: host or cells: MCF7
# T1 sequence (P03372 1-595): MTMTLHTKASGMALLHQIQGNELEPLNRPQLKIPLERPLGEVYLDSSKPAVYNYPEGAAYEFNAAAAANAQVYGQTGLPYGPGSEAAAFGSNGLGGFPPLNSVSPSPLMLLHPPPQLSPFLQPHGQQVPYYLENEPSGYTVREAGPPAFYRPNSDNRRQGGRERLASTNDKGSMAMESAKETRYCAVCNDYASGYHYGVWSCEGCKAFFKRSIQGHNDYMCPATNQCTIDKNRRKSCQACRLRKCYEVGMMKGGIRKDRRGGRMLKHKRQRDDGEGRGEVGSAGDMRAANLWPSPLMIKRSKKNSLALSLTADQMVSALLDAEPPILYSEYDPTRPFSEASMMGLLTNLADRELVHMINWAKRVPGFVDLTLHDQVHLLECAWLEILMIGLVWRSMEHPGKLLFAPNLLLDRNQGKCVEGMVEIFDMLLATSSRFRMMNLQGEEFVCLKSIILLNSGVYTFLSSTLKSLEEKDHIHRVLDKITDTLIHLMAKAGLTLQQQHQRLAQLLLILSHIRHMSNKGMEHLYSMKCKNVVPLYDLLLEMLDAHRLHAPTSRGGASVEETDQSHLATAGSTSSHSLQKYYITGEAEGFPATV
# Experiment: Estrogen receptor degradation activity: breast cancer cell ERα in cell western assay
# Type: cell-based
# Conditions: MCF7 cells, 4 hours, relative to fulvestrant 0.1 μM positive control
# Method: Test: Estrogen Receptor Degradation Activity Said test involves measuring the in vitro degradation activity of the compounds of the Table 1a. The measurements of the degradation activities were made using a breast cancer cell ERα in cell western assay as described hereunder. MCF7 cells (ATCC) were seeded in 384 wells microplate (collagen coated) at a concentration of 10000 cells/30 μL per well in red phenol free MEM alpha medium (invitrogen) containing 5% charcoal dextran striped FBS. The following day, 9 points serial 1:5 dilution of each compound was added to the cells in 2.5p L at final concentrations ranging from 0.3-0.0000018 μM (in table 2), or 0.1 μM for fulvestrant (using as positive control). At 4 hours post compound addition the cells were fixed by adding 25 μL of formalin (final concentration 5% formalin containing 0.1% triton) for 10 minutes at room temperature and then washed twice with PBS. Then, 50 μL of LI-COR blocking buffer containing 0.1% Triton was added to plate for 30 minutes at room temperature. LI-COR blocking buffer was removed and cells were incubated overnight at cold room with 50 μL anti-ER rabbit monoclonal antibody (Thermo scientific MA1-39540) diluted at 1:1000 in LI-COR blocking buffer containing 0.1% tween-20. Wells which were treated with blocking buffer but no antibody were used as background control. Wells were washed twice with PBS (0.1% tween-20) and incubated at 37° C. for 60 minutes in LI-COR (0.1% tween-20) containing goat anti-rabbit antibody Alexa 488 (1:1000) and Syto-64 a DNA dye (2 μM final concentration). Cells were then washed 3 times in PBS and scanned in ACUMEN explorer (TTP-Labtech). Integrated intensities in the green fluorescence and red fluorescence were measured to determine the levels of ERα and DNA respectively. The degradation activity with respect to estrogen receptors in this test is given by the concentration which degrades 50% of the estrogen receptor (or IC50) in nM. The % of ERα levels decrease were determined as follows: % inhibition=100*(1−(sample−fulvestrant: DMSO−fulvestrant)).
row,Compound,% Degradation At 0.3 μM [%]
1,"Cl.O=C(O)c1ccc2c(c1)CCCC(c1ccc(C(F)(F)F)cc1C1CC1)=C2c1ccc(CC2CN(CCCF)C2)cc1 [Compound 32, 8-(2-cyclopropyl-4-(trifluoromethyl)phenyl)-9-(4-((1-(3-fluoropropyl)azetidin-3-yl)methyl)phenyl)-6,7-dihydro-5H-benzo[7]annulene-3-carboxylic acid, hydrochloride]",91
2,"Cc1cc(C2=C(c3ccc(CC4CN(CCCF)C4)cc3)c3ccc(C(=O)O)cc3CCC2)cc(C(F)(F)F)c1.Cl [Compound 34, 9-(4-((1-(3-fluoropropyl)azetidin-3-yl)methyl)phenyl)-8-(3-methyl-5-(trifluoromethyl)phenyl)-6,7-dihydro-5H-benzo[7]annulene-3-carboxylic acid, hydrochloride]",90
3,"COc1ccc(C(F)(F)F)c(C2=C(c3ccc(CC4CN(CCCF)C4)cc3)c3ccc(C(=O)O)cc3CCC2)c1 [Compound 35, 9-(4-((1-(3-fluoropropyl)azetidin-3-yl)methyl)phenyl)-8-(5-methoxy-2-(trifluoromethyl)phenyl)-6,7-dihydro-5H-benzo[7]annulene-3-carboxylic acid]",91
4,"C=Cc1c(F)cccc1C1=C(c2ccc(CC3CN(CCCF)C3)cc2)c2ccc(C(=O)O)cc2CCC1 [Compound 36, 8-(3-fluoro-2-vinylphenyl)-9-(4-((1-(3-fluoropropyl)azetidin-3-yl)methyl)phenyl)-6,7-dihydro-5H-benzo[7]annulene-3-carboxylic acid]",92
5,"CCc1c(F)cccc1C1=C(c2ccc(CC3CN(CCCF)C3)cc2)c2ccc(C(=O)O)cc2CCC1 [Compound 37, 8-(2-ethyl-3-fluorophenyl)-9-(4-((1-(3-fluoropropyl)azetidin-3-yl)methyl)phenyl)-6,7-dihydro-5H-benzo[7]annulene-3-carboxylic acid]",94
6,"O=C(O)c1ccc2c(c1)CCCC(c1ccc(C(F)(F)F)cc1C(F)(F)F)=C2c1ccc(CC2CN(CCCF)C2)cc1 [Compound 39, 8-(2,4-bis(trifluoromethyl)phenyl)-9-(4-((1-(3-fluoropropyl)azetidin-3-yl)methyl)phenyl)-6,7-dihydro-5H-benzo[7]annulene-3-carboxylic acid]",95
7,"Cc1cc(C2=C(c3ccc(CC4CN(CCCF)C4)cc3)c3ccc(C(=O)O)cc3CCC2)ccc1C(F)F.Cl [Compound 42, 8-(4-(difluoromethyl)-3-methylphenyl)-9-(4-((1-(3-fluoropropyl)azetidin-3-yl)methyl)phenyl)-6,7-dihydro-5H-benzo[7]annulene-3-carboxylic acid, hydrochloride]",91
8,"O=C(O)c1ccc2c(c1)CCCC(c1c(F)cccc1OC(F)(F)F)=C2c1ccc(CC2CN(CCCF)C2)cc1 [Compound 43, 8-(2-fluoro-6-(trifluoromethoxy)phenyl)-9-(4-((1-(3-fluoropropyl)azetidin-3-yl)methyl)phenyl)-6,7-dihydro-5H-benzo[7]annulene-3-carboxylic acid]",92
9,"COc1cccc(C2=C(c3ccc(CC4CN(CCCF)C4)cc3)c3ccc(C(=O)O)cc3CCC2)c1OC [Compound 46, 8-(2,3-dimethoxyphenyl)-9-(4-((1-(3-fluoropropyl)azetidin-3-yl)methyl)phenyl)-6,7-dihydro-5H-benzo[7]annulene-3-carboxylic acid]",93
10,"O=C(O)c1ccc2c(c1)CCCC(c1ccc(F)c(O)c1F)=C2c1ccc(CC2CN(CCCF)C2)cc1 [Compound 47, 8-(2,4-difluoro-3-hydroxyphenyl)-9-(4-((1-(3-fluoropropyl)azetidin-3-yl)methyl)phenyl)-6,7-dihydro-5H-benzo[7]annulene-3-carboxylic acid]",100
11,"COc1cccc(OC)c1C1=C(c2ccc(CC3CN(CCCF)C3)cc2)c2ccc(C(=O)O)cc2CCC1.Cl [Compound 51, 8-(2,6-dimethoxyphenyl)-9-(4-((1-(3-fluoropropyl)azetidin-3-yl)methyl)phenyl)-6,7-dihydro-5H-benzo[7]annulene-3-carboxylic acid, hydrochloride]",92
12,"O=C(O)c1ccc2c(c1)CCCC(c1ccc(C(F)(F)F)c(O)c1)=C2c1ccc(CC2CN(CCCF)C2)cc1 [Compound 52, 9-(4-((1-(3-fluoropropyl)azetidin-3-yl)methyl)phenyl)-8-(3-hydroxy-4-(trifluoromethyl)phenyl)-6,7-dihydro-5H-benzo[7]annulene-3-carboxylic acid]",90

# The remaining lines, values ahead:
row,% Degradation At 0.3 μM [%],Compound
1,91,"Cc1cccc(C(F)(F)F)c1C1=C(c2ccc(CC3CN(CCCF)C3)cc2)c2ccc(C(=O)O)cc2CCC1 [Compound 33, 9-(4-((1-(3-fluoropropyl)azetidin-3-yl)methyl)phenyl)-8-(2-methyl-6-(trifluoromethyl)phenyl)-6,7-dihydro-5H-benzo[7]annulene-3-carboxylic acid]"
2,92,"CCc1c(Cl)cccc1C1=C(c2ccc(CC3CN(CCCF)C3)cc2)c2ccc(C(=O)O)cc2CCC1 [Compound 38, 8-(3-chloro-2-ethylphenyl)-9-(4-((1-(3-fluoropropyl)azetidin-3-yl)methyl)phenyl)-6,7-dihydro-5H-benzo[7]annulene-3-carboxylic acid]"
3,91,"Cc1cccc(Cl)c1C1=C(c2ccc(CC3CN(CCCF)C3)cc2)c2ccc(C(=O)O)cc2CCC1.Cl [Compound 40, 8-(2-chloro-6-methylphenyl)-9-(4-((1-(3-fluoropropyl)azetidin-3-yl)methyl)phenyl)-6,7-dihydro-5H-benzo[7]annulene-3-carboxylic acid, hydrochloride]"
4,91,"Cc1cccc(F)c1C1=C(c2ccc(CC3CN(CCCF)C3)cc2)c2ccc(C(=O)O)cc2CCC1.Cl [Compound 41, 8-(2-fluoro-6-methylphenyl)-9-(4-((1-(3-fluoropropyl)azetidin-3-yl)methyl)phenyl)-6,7-dihydro-5H-benzo[7]annulene-3-carboxylic acid, hydrochloride]"
5,92,"COc1cccc(Cl)c1C1=C(c2ccc(CC3CN(CCCF)C3)cc2)c2ccc(C(=O)O)cc2CCC1 [Compound 44, 8-(2-chloro-6-methoxyphenyl)-9-(4-((1-(3-fluoropropyl)azetidin-3-yl)methyl)phenyl)-6,7-dihydro-5H-benzo[7]annulene-3-carboxylic acid]"
6,92,"COc1cccc(F)c1C1=C(c2ccc(CC3CN(CCCF)C3)cc2)c2ccc(C(=O)O)cc2CCC1 [Compound 45, 8-(2-fluoro-6-methoxyphenyl)-9-(4-((1-(3-fluoropropyl)azetidin-3-yl)methyl)phenyl)-6,7-dihydro-5H-benzo[7]annulene-3-carboxylic acid]"
7,92,"COc1cccc(C)c1C1=C(c2ccc(CC3CN(CCCF)C3)cc2)c2ccc(C(=O)O)cc2CCC1.Cl [Compound 48, 9-(4-((1-(3-fluoropropyl)azetidin-3-yl)methyl)phenyl)-8-(2-methoxy-6-methylphenyl)-6,7-dihydro-5H-benzo[7]annulene-3-carboxylic acid, hydrochloride]"
8,92,"COc1c(C)cccc1C1=C(c2ccc(CC3CN(CCCF)C3)cc2)c2ccc(C(=O)O)cc2CCC1.Cl [Compound 49, 9-(4-((1-(3-fluoropropyl)azetidin-3-yl)methyl)phenyl)-8-(2-methoxy-3-methylphenyl)-6,7-dihydro-5H-benzo[7]annulene-3-carboxylic acid, hydrochloride]"
9,91,"O=C(O)c1ccc2c(c1)CCCC(c1c(Cl)cccc1OC(F)(F)F)=C2c1ccc(CC2CN(CCCF)C2)cc1 [Compound 50, 8-(2-chloro-6-(trifluoromethoxy)phenyl)-9-(4-((1-(3-fluoropropyl)azetidin-3-yl)methyl)phenyl)-6,7-dihydro-5H-benzo[7]annulene-3-carboxylic acid]"
